{"source": "patent US11053204B2", "about": "“Pyrimidinyloxy benzene derivatives as herbicides” (FMC Corporation, priority 2015, dated 2021)", "type_in_all_cases": "in vivo", "key": {"[1]": {"tested_on": "giant foxtail (Setaria faberii)", "experiment": "Test A postemergence, visual injury rating", "how_it_was_run": "(§1)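 Injury scores run from 0, no effect, to 100, complete control, judged by eye against untreated plants roughly 10 days after treatment. Chemicals carried a surfactant in a non-phytotoxic solvent and went onto loam–sand soil preemergence or onto one- to two-leaf seedlings postemergence.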"}, "[2]": {"tested_on": "Italian ryegrass (Lolium multiflorum)", "experiment": "Test A postemergence, visual injury rating", "how_it_was_run": "as §1"}, "[3]": {"tested_on": "pigweed (Amaranthus retroflexus)", "experiment": "Test A postemergence, visual injury rating", "how_it_was_run": "as §1"}, "[4]": {"tested_on": "ragweed (common ragweed, Ambrosia elatior)", "experiment": "Test A postemergence, visual injury rating", "how_it_was_run": "as §1"}, "[5]": {"tested_on": "kochia (Kochia scoparia)", "experiment": "Test A postemergence, visual injury rating", "how_it_was_run": "as §1"}, "[6]": {"tested_on": "galium (catchweed bedstraw, Galium aparine)", "experiment": "Test A postemergence, visual injury rating", "how_it_was_run": "as §1"}, "[7]": {"tested_on": "wheat (Triticum aestivum)", "experiment": "Test A postemergence, visual injury rating", "how_it_was_run": "as §1"}, "[8]": {"tested_on": "blackgrass (Alopecurus myosuroides)", "experiment": "Test A postemergence, visual injury rating", "how_it_was_run": "as §1"}, "[9]": {"tested_on": "barnyardgrass (Echinochloa crus-galli)", "experiment": "Test A postemergence, visual injury rating", "conditions": "0 to 100 scale, 0 is no effect, 100 is complete control, approximately 10 days", "how_it_was_run": "as §1"}, "[10]": {"tested_on": "corn (Zea mays)", "experiment": "Test A postemergence, visual injury rating", "how_it_was_run": "as §1"}, "[11]": {"tested_on": "morningglory (Ipomoea coccinea)", "experiment": "Test C postemergence, plant response rating", "conditions": "for Morningglory plant response rating: scale 0 to 100 (0 no effect, 100 complete control)", "how_it_was_run": "(§2)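 Both timings shared one formulation, a non-phytotoxic solvent mixture with surfactant, and a greenhouse period of 13 to 15 d. Preemergence used seeded loam/sand or silt loam soil, postemergence used 2 to 18 cm plants; visual ratings ran from 0 (no effect) to 100 (complete control).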"}, "[12]": {"tested_on": "kochia (Kochia scoparia)", "experiment": "Test C postemergence, plant response rating", "conditions": "for Kochia plant response rating: scale 0 to 100 (0 no effect, 100 complete control)", "how_it_was_run": "as §2"}, "[13]": {"tested_on": "chickweed (common chickweed, Stellaria media)", "experiment": "Test C postemergence, plant response rating", "conditions": "for Chickweed plant response rating: scale 0 to 100 (0 no effect, 100 complete control)", "how_it_was_run": "as §2"}, "[14]": {"tested_on": "pigweed (Amaranthus retroflexus)", "experiment": "Test A preemergence, visual injury rating", "how_it_was_run": "as §1"}, "[15]": {"tested_on": "kochia (Kochia scoparia)", "experiment": "Test A preemergence, visual injury rating", "how_it_was_run": "as §1"}, "[16]": {"tested_on": "ducksalad (Heteranthera limosa)", "experiment": "Test B flooded paddy test, plant response rating", "conditions": "250 g ai/ha; Flood; scale of 0 to 100 where 0 is no effect and 100 is complete control; 13 to 15 days", "how_it_was_run": "(§3)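 Under a constant 3 cm flood, test compounds went directly into the paddy water. Following 13 to 15 days of greenhouse growth, treated species and controls were compared by eye.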"}, "[17]": {"tested_on": "sedge, umbrella (small-flower umbrella sedge, Cyperus difformis)", "experiment": "Test B flooded paddy test, plant response rating", "conditions": "250 g ai/ha; Flood; scale of 0 to 100 where 0 is no effect and 100 is complete control; 13 to 15 days", "how_it_was_run": "as §3"}, "[18]": {"tested_on": "barnyardgrass (Echinochloa crus-galli)", "experiment": "Test B flooded paddy test, plant response rating", "conditions": "250 g ai/ha; Flood; scale of 0 to 100 where 0 is no effect and 100 is complete control; 13 to 15 days", "how_it_was_run": "as §3"}, "[19]": {"tested_on": "rice (Oryza sativa)", "experiment": "Test B flooded paddy test, plant response rating", "conditions": "250 g ai/ha; Flood; scale of 0 to 100 where 0 is no effect and 100 is complete control; 13 to 15 days", "how_it_was_run": "as §3"}, "[20]": {"conditions": "31 g ai/ha, 0 to 100 scale (0 no effect, 100 complete control)"}, "[21]": {"conditions": "125 g ai/ha, 0 to 100 scale, 0 is no effect, 100 is complete control, approximately 10 days"}, "[22]": {"conditions": "31 g ai/ha, 0 to 100 scale, 0 no effect, 100 complete control"}, "[23]": {"conditions": "125 g ai/ha, 0 to 100 scale (0 no effect, 100 complete control)"}}}
{"smiles": "N#CC(CCCC(F)(F)F)c1ccccc1Oc1ncc(Cl)cn1", "note": "(stereo not shown) [Compound 144]", "values": [{"measurement": "Foxtail, Giant plant response rating", "setting": "[1]; [20]", "value": 60}, {"measurement": "Foxtail, Giant plant response rating", "setting": "[1]; [21]", "value": 90}, {"measurement": "Ryegrass, Italian plant response rating", "setting": "[2]; [20]", "value": 30}, {"measurement": "Ryegrass, Italian plant response rating", "setting": "[2]; [21]", "value": 80}, {"measurement": "Pigweed plant response rating", "setting": "[3]; [20]", "value": 90}, {"measurement": "Pigweed plant response rating", "setting": "[3]; [21]", "value": 100}, {"measurement": "Ragweed plant response rating", "setting": "[4]; [20]", "value": 10}, {"measurement": "Ragweed plant response rating", "setting": "[4]; [21]", "value": 10}, {"measurement": "Kochia plant response rating", "setting": "[5]; [20]", "value": 90}, {"measurement": "Kochia plant response rating", "setting": "[5]; [21]", "value": 100}, {"measurement": "Galium plant response rating", "setting": "[6]; [20]", "value": 40}, {"measurement": "Galium plant response rating", "setting": "[6]; [21]", "value": 100}, {"measurement": "Wheat plant response rating", "setting": "[7]; [20]", "value": 10}, {"measurement": "Wheat plant response rating", "setting": "[7]; [21]", "value": 60}, {"measurement": "Blackgrass plant response rating", "setting": "[8]; [20]", "value": 50}, {"measurement": "Blackgrass plant response rating", "setting": "[8]; [21]", "value": 90}, {"measurement": "Barnyardgrass plant response rating", "setting": "[9]; 31 g ai/ha", "value": 40}, {"measurement": "Barnyardgrass plant response rating", "setting": "[9]; 125 g ai/ha", "value": 90}, {"measurement": "Corn plant response rating", "setting": "[10]; [20]", "value": 20}, {"measurement": "Corn plant response rating", "setting": "[10]; [21]", "value": 80}, {"measurement": "Plant response rating, Morningglory", "setting": "[11]; 16 g ai/ha, scale of 0 to 100", "value": 30}, {"measurement": "Plant response rating, Morningglory", "setting": "[11]; 31 g ai/ha, scale 0 to 100", "value": 20}, {"measurement": "Morningglory plant response rating", "setting": "[11]; 62 g ai/ha", "value": 50}, {"measurement": "Morningglory plant response rating", "setting": "[11]; 125 g ai/ha", "value": 60}, {"measurement": "Plant response rating, Kochia", "setting": "[12]; 16 g ai/ha, scale of 0 to 100", "value": 85}, {"measurement": "Plant response rating, Kochia", "setting": "[12]; 31 g ai/ha, scale 0 to 100", "value": 90}, {"measurement": "Kochia plant response rating", "setting": "[12]; 62 g ai/ha", "value": 90}, {"measurement": "Kochia plant response rating", "setting": "[12]; 125 g ai/ha", "value": 90}, {"measurement": "Plant response rating, Chickweed", "setting": "[13]; 16 g ai/ha, scale of 0 to 100", "value": 50}, {"measurement": "Plant response rating, Chickweed", "setting": "[13]; 31 g ai/ha, scale 0 to 100", "value": 55}, {"measurement": "Chickweed plant response rating", "setting": "[13]; 62 g ai/ha", "value": 85}, {"measurement": "Chickweed plant response rating", "setting": "[13]; 125 g ai/ha", "value": 85}, {"measurement": "Plant response rating, Pigweed", "setting": "[14]; [22]", "value": 100}, {"measurement": "Plant response rating, Pigweed", "setting": "[14]; [23]", "value": 100}, {"measurement": "Plant response rating, Kochia", "setting": "[15]; [22]", "value": 90}, {"measurement": "Plant response rating, Kochia", "setting": "[15]; [23]", "value": 100}, {"measurement": "Plant response rating, Ducksalad", "setting": "[16]", "value": 100}, {"measurement": "Plant response rating, Sedge, Umbrella", "setting": "[17]", "value": 100}, {"measurement": "Plant response rating, Barnyardgrass", "setting": "[18]", "value": 70}, {"measurement": "Plant response rating, Rice", "setting": "[19]", "value": 35}]}
